The results in this text go back to ChEMBL document CHEMBL1201862, “PubChem BioAssay data set” (2004).

Each structure is given as a SMILES string.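 Assay format: 96-well plates, 48-hour exposure. Abbreviation: GI50, concentration required for 50% inhibition of growth.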 Active and inactive are the calls of the source. No stated cut-off is given here; in the data, active = GI50 up to about 1.1 µM and inactive = higher.

Some test systems named below: HL-60; PC-3; OVCAR-5; NCI-H522; RPMI-8226; SNB-19; KM12; TK-10; RXF 393; COLO 205; SW-620; HT-29; SF-295; NCI-H23; 786-0; NCI/ADR-RES; U-251; SN12C; Hs-578T; NCI-H460.
Assay in all cases: NCI-60 cell line screen, 48 h

Turning to `CC1=CCS(=O)(=O)C1C(O)C1=C(C)CCCC1(C)C` (configuration not stated), the GI50 with HL-60 is 35.3 µM (inactive); in the assay on PC-3, 55.5 µM (inactive); with OVCAR-5, > 100 µM (inactive); with NCI-H522, 58.6 µM (inactive); in the assay with RPMI-8226, 14.3 µM (inactive); in the assay on SNB-19, > 100 µM (inactive). In addition, the GI50 in the assay with KM12 was 59.7 µM (inactive); in the assay on TK-10, > 100 µM (inactive); in the assay on RXF 393, > 100 µM (inactive); in the assay with COLO 205 it was 60.1 µM (inactive); in the assay on SW-620, > 100 µM (inactive); in the assay with HT-29 it was > 100 µM (inactive). Besides, the GI50 with SF-295 is 22.2 µM (inactive); in the assay with NCI-H23 it was > 100 µM (inactive); with 786-0, > 100 µM (inactive); in the assay on NCI/ADR-RES it was 78.7 µM (inactive); in the assay with U-251 it was 56.8 µM (inactive); in the assay with SN12C, > 100 µM (inactive).
Turning to `CC1C(c2ccccc2O)c2cc3c(cc2OC1N1CCOCC1)OCO3` (configuration not stated), the GI50 was 20 µM (inactive) in the assay on HL-60; 27.1 µM (inactive) in the assay with PC-3; 47.5 µM (inactive) in the assay on OVCAR-5; 12.4 µM (inactive) in the assay with NCI-H522; 15.5 µM (inactive) in the assay on RPMI-8226; 40.7 µM (inactive) with SNB-19. Besides, the GI50 in the assay with Hs-578T was 19.4 µM (inactive); in the assay with KM12, 27.3 µM (inactive); in the assay on NCI-H460 it was 20.6 µM (inactive); in the assay with TK-10 it was 30.3 µM (inactive); with RXF 393, 22.6 µM (inactive); in the assay on COLO 205 it was 21.2 µM (inactive). Besides, the GI50 in the assay with SW-620 is 42.3 µM (inactive); in the assay on HT-29 it was 26.9 µM (inactive); in the assay on SF-295, 21.7 µM (inactive); with NCI-H23, 32.4 µM (inactive); in the assay with 786-0, 34.7 µM (inactive); with U-251 it was 26.5 µM (inactive). The GI50 with SN12C was 37.1 µM (inactive).
In the case of `O=c1c2ccccc2nc(-c2cccc([N+](=O)[O-])c2)n1O`, the GI50 in the assay with HL-60 is 1.64 µM (inactive); in the assay with OVCAR-5, 66.7 µM (inactive); in the assay on NCI-H522 it was 28.6 µM (inactive); with SNB-19, 53.2 µM (inactive); in the assay on Hs-578T it was > 100 µM (inactive); in the assay on KM12 it was 36.5 µM (inactive). Besides, the GI50 in the assay on NCI-H460 was 29.2 µM (inactive); in the assay with TK-10, 94.2 µM (inactive); with RXF 393, 47.1 µM (inactive); with COLO 205, 31.3 µM (inactive); in the assay with SW-620 it was 35.3 µM (inactive); with HT-29, 43.7 µM (inactive). Also, the GI50 with SF-295 was 40.1 µM (inactive); with NCI-H23, 50 µM (inactive); in the assay with 786-0, 42.9 µM (inactive); in the assay on NCI/ADR-RES, 23.3 µM (inactive); in the assay with U-251, 27.4 µM (inactive); in the assay with SN12C it was 24.2 µM (inactive).
Regarding `CC(C)N1[C@@H]2CCCC[C@H]2N(C(C)C)[PH]1=O`, the GI50 in the assay with OVCAR-5, in the assay on NCI-H522, in the assay on RPMI-8226, in the assay with Hs-578T, in the assay with KM12 and in the assay on NCI-H460 was > 100 µM (inactive) in each case. In addition, the GI50 in the assay with TK-10, in the assay with RXF 393, in the assay on COLO 205, in the assay with SW-620, with HT-29 and with SF-295 was > 100 µM (inactive) each time. Moreover, the GI50 in the assay on NCI-H23, with 786-0, with NCI/ADR-RES and in the assay on SN12C was > 100 µM (inactive) in each case.
As for `C=C(C)[C@H]1C2=CC(C(=O)OC)=C(C[C@H](C(=C)C)[C@@H](O)[C@@H](O)C3=C[C@H]1OC3=O)O2`, the GI50 with HL-60 was 61 µM (inactive); with OVCAR-5, > 100 µM (inactive); in the assay on NCI-H522, > 100 µM (inactive); in the assay with RPMI-8226, > 100 µM (inactive); in the assay on SNB-19, > 100 µM (inactive); in the assay on Hs-578T, > 100 µM (inactive). Moreover, the GI50 in the assay on KM12, with TK-10, with RXF 393, in the assay with COLO 205, with SW-620 and in the assay on HT-29 was > 100 µM (inactive) in each case. In addition, the GI50 in the assay on SF-295, in the assay with NCI-H23, in the assay on 786-0, with NCI/ADR-RES, in the assay on U-251 and in the assay with SN12C was > 100 µM (inactive) in each case.
As for `COC(=O)[C@H](C)N1C(=O)N[C@@H](C(C)C)C1=O`, the GI50 in the assay with PC-3, with OVCAR-5, with NCI-H522, in the assay on RPMI-8226, in the assay on SNB-19 and with KM12 was > 100 µM (inactive) in each case. Further, the GI50 with NCI-H460, in the assay with TK-10, with RXF 393, in the assay on COLO 205, in the assay with SW-620 and in the assay with HT-29 was > 100 µM (inactive) each time. Besides, the GI50 in the assay with SF-295, in the assay on NCI-H23, in the assay on 786-0, in the assay with NCI/ADR-RES, with U-251 and in the assay with SN12C was > 100 µM (inactive) in each case.
As for `Cc1oc2c(cc(O)c3ccccc32)c2cccc1-2`, the GI50 is 96.6 µM (inactive) in the assay with HL-60; > 100 µM (inactive) with PC-3; > 100 µM (inactive) with OVCAR-5; > 100 µM (inactive) with RPMI-8226; > 100 µM (inactive) with SNB-19; > 100 µM (inactive) in the assay with Hs-578T. The GI50 in the assay with KM12, in the assay with NCI-H460, in the assay with TK-10, in the assay with COLO 205, with SW-620 and in the assay on HT-29 was > 100 µM (inactive) throughout. Further, the GI50 in the assay with SF-295, in the assay on NCI-H23, in the assay on 786-0, in the assay with NCI/ADR-RES, with U-251 and in the assay with SN12C was > 100 µM (inactive) in each case.
On to `Cc1cc2[nH]c3c(C#N)c(-c4ccccc4)c(/C=N/c4ccc(F)cc4)c(=O)n3c2cc1C`, for which the GI50 was > 100 µM (inactive) in the assay with PC-3; > 100 µM (inactive) with OVCAR-5; 45.5 µM (inactive) with NCI-H522; > 100 µM (inactive) in the assay with RPMI-8226; 0.513 µM (active) with SNB-19; 68.5 µM (inactive) in the assay with KM12. In addition, the GI50 with NCI-H460 was > 100 µM (inactive); in the assay on TK-10, > 100 µM (inactive); in the assay on RXF 393, 91.2 µM (inactive); in the assay with COLO 205, > 100 µM (inactive); in the assay with SW-620, 62.5 µM (inactive); in the assay on SF-295 it was 64.6 µM (inactive). Also, the GI50 in the assay on NCI-H23, with 786-0, with NCI/ADR-RES, in the assay on U-251 and in the assay with SN12C was > 100 µM (inactive) throughout.
